Results reported in patent US20240279202A1 (NURIX THERAPEUTICS, INC., priority 2021, published 2024).

Target: T1, ITK (Homo sapiens, UniProt Q08881)
T1 sequence (Q08881 1-620): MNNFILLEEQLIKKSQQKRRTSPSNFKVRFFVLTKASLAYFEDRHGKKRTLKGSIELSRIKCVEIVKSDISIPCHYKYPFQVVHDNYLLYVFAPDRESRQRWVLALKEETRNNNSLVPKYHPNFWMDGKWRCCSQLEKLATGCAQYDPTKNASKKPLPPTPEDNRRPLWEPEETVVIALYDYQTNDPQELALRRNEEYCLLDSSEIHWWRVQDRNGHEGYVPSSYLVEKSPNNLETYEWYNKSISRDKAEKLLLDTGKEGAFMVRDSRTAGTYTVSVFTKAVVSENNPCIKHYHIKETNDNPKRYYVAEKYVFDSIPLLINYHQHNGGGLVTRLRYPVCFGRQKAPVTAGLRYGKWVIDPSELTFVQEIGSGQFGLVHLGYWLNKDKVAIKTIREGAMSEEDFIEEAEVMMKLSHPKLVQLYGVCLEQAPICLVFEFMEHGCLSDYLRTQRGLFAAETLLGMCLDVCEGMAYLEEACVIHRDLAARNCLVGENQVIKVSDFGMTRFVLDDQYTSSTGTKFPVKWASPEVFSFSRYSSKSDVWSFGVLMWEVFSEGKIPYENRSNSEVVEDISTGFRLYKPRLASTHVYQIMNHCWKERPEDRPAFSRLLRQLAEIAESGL
Experiment: ITK degradation HiBiT assay
Assay type: cell-based
Parameters: expressed in transfected cells; host or cells: Molt4 (ATCC CRL-1552), monoclonal clone 1C10, engineered to carry the HiBiT tag
Conditions: 4 hrs; for DC50: C-terminal HiBiT-tagged Molt4 cells; for Dmax: MOLT-4, C-terminal HiBiT-tagged Molt4 cells
How it was run: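 C-terminal HiBiT-tagged Molt4 cells (clone 1C10) treated 4 h at 32° C with an 11-point, 5-fold compound dilution series (0.5% DMSO). HiBiT lytic detection with LgBiT then luminescence read; % ITK remaining versus concentration fit by four-parameter variable-slope model to give DC50 and Dmax.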

Row | DC50 [nM] | Dmax [%] | SMILES
1 | 0.14 | 87 | C[C@@]12Cc3[nH]nc(C(=O)Nc4cnn(C5CCN(CC6CCN(c7ccc(C8CCC(=O)NC8=O)cc7F)CC6)CC5)c4)c3C[C@@H]1C2(F)F (mixture of isomers) [Compound 112, (4aS,5aR)-N-(1-{1-[(1-{4-[(3RS)-2,6-dioxopiperidin-3-yl]-2-fluorophenyl}piperidin-4-yl)methyl]piperidin-4-yl}-1H-pyrazol-4-yl)-5,5-difluoro-5a-methyl-1H,4H,4aH,5H,5aH,6H-cyclopropa[f]indazole-3-carboxamide]
2 |  | 84 | C[C@@H]1CN(C(=O)c2ccc3cc(-c4n[nH]c5c4C[C@@H]4C(F)(F)[C@]4(C)C5)[nH]c3c2)CCN1CC1CCN(c2ccc(C3CCC(=O)NC3=O)cc2)CC1 (stereo partly drawn) [Compound 159]
3 | 0.7 | 89 | C[C@@]12Cc3[nH]nc(C(=O)Nc4cnn([C@H]5CCN(C[C@H]6CCN(c7ccc(C8CCC(=O)NC8=O)cc7)C6)C[C@@H]5F)c4)c3C[C@@H]1C2(F)F (stereo partly drawn) [Compound 98, (4aS,5aR)-N-(1-((3S,4S)-1-(((3R)-1-(4-(2,6-dioxopiperidin-3-yl)phenyl)pyrrolidin-3-yl)methyl)-3-fluoropiperidin-4-yl)-1H-pyrazol-4-yl)-5,5-difluoro-5a-methyl-1,4,4a,5,5a,6-hexahydrocyclopropa[f]indazole-3-carboxamide]
4 | 1.4 | 91 | C[C@@]12Cc3[nH]nc(C(=O)Nc4cnn(C5CCC(CN6CCN(c7ccc(C8CCC(=O)NC8=O)cc7)CC6)CC5)c4)c3C[C@@H]1C2(F)F (mixture of isomers) [Compound 126, (4aS,5aR)-5,5-difluoro-5a-methyl-N-{1-[(1rs,4rs)-4-[(4-{4-[(3RS)-2,6-dioxopiperidin-3-yl]phenyl}piperazin-1-yl)methyl]cyclohexyl]-1H-pyrazol-4-yl}-1H,4H,4aH,5H,5aH,6H-cyclopropa[f]indazole-3-carboxamide]
5 |  | 86 | C[C@@]12Cc3[nH]nc(C(=O)Nc4cnn(C5CCN(C(=O)C6CCC(Cn7cc8cc(C9CCC(=O)NC9=O)ccc8n7)CC6)CC5)c4)c3C[C@@H]1C2(F)F (mixture of isomers) [Compound 165]
6 |  | 64 | CC1(C)CCc2c(-c3cc4cc(C(=O)N5CCC(CN6CCc7cc(C8CCC(=O)NC8=O)ccc7C6)CC5)ccc4[nH]3)n[nH]c2C1 (stereo not drawn) [Compound 194]
7 | 1.9 | 97 | C[C@@]12Cc3[nH]nc(C(=O)Nc4cnn([C@H]5CCN(CC6CCN(c7ccc(C(=O)N[C@H]8CCC(=O)NC8=O)nc7)CC6)C[C@@H]5F)c4)c3C[C@@H]1C2(F)F [Compound 93, (4aS,5aR)-N-(1-((3S,4S)-1-((1-(6-(((S)-2,6-dioxopiperidin-3-yl)carbamoyl)pyridin-3-yl)piperidin-4-yl)methyl)-3-fluoropiperidin-4-yl)-1H-pyrazol-4-yl)-5,5-difluoro-5a-methyl-1,4,4a,5,5a,6-hexahydrocyclopropa[f]indazole-3-carboxamide]
8 | 1.4 | 89 | C[C@@]12Cc3[nH]nc(-c4cc5cc(F)c(C(=O)N6CCN(CC7CCN(c8ccc([C@H]9CCC(=O)NC9=O)cc8)CC7)CC6)cc5[nH]4)c3C[C@@H]1C2(F)F (single isomer, unassigned) [Compound 220]
9 |  | 86 | C[C@@]12Cc3[nH]nc(-c4cc5cc(C(=O)N6CCN(CC7(F)CCN(c8ccc(C9CCC(=O)NC9=O)cc8)CC7)CC6)ccc5[nH]4)c3C[C@@H]1C2(F)F (stereo partly drawn) [Compound 141]
10 | < 0.01 | 85 | C[C@@]12Cc3[nH]nc(-c4cc5ccc(C(=O)N6CCN(CC7CCN(c8ccc(C9CCC(=O)NC9=O)cc8)CC7)CC6)cc5[nH]4)c3C[C@@H]1C2(F)F (stereo partly drawn) [Compound 135, 3-(4-(4-((4-(2-((4aS,5aR)-5,5-difluoro-5a-methyl-1,4,4a,5,5a,6-hexahydrocyclopropa[f]indazol-3-yl)-1H-indole-6-carbonyl)piperazin-1-yl)methyl)piperidin-1-yl)phenyl)piperidine-2,6-dione]
11 | 0.49 | 65 | C[C@@]12Cc3[nH]nc(C(=O)Nc4cnn(C5CCN(CC6CCN(c7ccc(N8CCC(=O)NC8=O)cc7)CC6)CC5)c4)c3C[C@@H]1C2(F)F [Compound 207, (4aS,5aR)-N-(1-(1-((1-(4-(2,4-dioxotetrahydropyrimidin-1(2H)-yl)phenyl)piperidin-4-yl)methyl)piperidin-4-yl)-1H-pyrazol-4-yl)-5,5-difluoro-5a-methyl-1,4,4a,5,5a,6-hexahydrocyclopropa[f]indazole-3-carboxamide]
12 |  | 61 | Cc1nc(N2CCC(CN3CCN(C(=O)c4ccc5cc(-c6n[nH]c7c6CCC(C)(C)C7)[nH]c5c4)CC3)CC2)ccc1C1CCC(=O)NC1=O (stereo not drawn) [Compound 181]
13 | 0.049 | 84 | C[C@@]12Cc3[nH]nc(C(=O)Nc4cnn(CC5CCN(CC6CCN(c7ccc(C8CCC(=O)NC8=O)cn7)CC6)CC5)c4)c3C[C@@H]1C2(F)F (mixture of isomers) [Compound 120, (4aS,5aR)-N-[1-({1-[(1-{5-[(3RS)-2,6-dioxopiperidin-3-yl]pyridin-2-yl}piperidin-4-yl)methyl]piperidin-4-yl}methyl)-1H-pyrazol-4-yl]-5,5-difluoro-5a-methyl-1H,4H,4aH,5H,5aH,6H-cyclopropa[f]indazole-3-carboxamide]
14 | 5.5 | 85 | C[C@H]1CN(CC2CCN(c3ccc(C4CCC(=O)NC4=O)cn3)CC2)CCN1C(=O)c1ccc2cc(-c3n[nH]c4c3CCC(C)(C)C4)[nH]c2c1 (stereo partly drawn) [Compound 130, 3-(6-(4-(((S)-4-(2-(6,6-dimethyl-4,5,6,7-tetrahydro-1H-indazol-3-yl)-1H-indole-6-carbonyl)-3-methylpiperazin-1-yl)methyl)piperidin-1-yl)pyridin-3-yl)piperidine-2,6-dione]
15 | 3.7 | 85 | C[C@@]12Cc3[nH]nc(C(=O)Nc4cnn([C@@H]5CCN(C[C@H]6CCN(c7ccc(C8CCC(=O)NC8=O)cc7)C6)C[C@H]5F)c4)c3C[C@@H]1C2(F)F (stereo partly drawn) [Compound 99, (4aS,5aR)-N-(1-((3R,4R)-1-(((3R)-1-(4-(2,6-dioxopiperidin-3-yl)phenyl)pyrrolidin-3-yl)methyl)-3-fluoropiperidin-4-yl)-1H-pyrazol-4-yl)-5,5-difluoro-5a-methyl-1,4,4a,5,5a,6-hexahydrocyclopropa[f]indazole-3-carboxamide]
16 |  | 81 | C[C@@]12Cc3[nH]nc(-c4cc5cc(C(=O)N6CCN(C[C@@H]7CCN(c8ccc(C9CCC(=O)NC9=O)cc8)C7)CC6)ccc5[nH]4)c3C[C@@H]1C2(F)F (stereo partly drawn) [Compound 143]
17 | 1.7 | 86 | C[C@@]12Cc3[nH]nc(C(=O)Nc4cnn([C@H]5CCN(C[C@@H]6CCN(c7ccc(C8CCC(=O)NC8=O)cc7)C6)C[C@@H]5F)c4)c3C[C@@H]1C2(F)F (stereo partly drawn) [Compound 100, (4aS,5aR)-N-(1-((3S,4S)-1-(((3S)-1-(4-(2,6-dioxopiperidin-3-yl)phenyl)pyrrolidin-3-yl)methyl)-3-fluoropiperidin-4-yl)-1H-pyrazol-4-yl)-5,5-difluoro-5a-methyl-1,4,4a,5,5a,6-hexahydrocyclopropa[f]indazole-3-carboxamide]
18 | 3.57 | 84 | CC1(C)CCc2c(-c3cc4ccc(C(=O)N5CCN(CC6CCN(c7ccc(C8CCC(=O)NC8=O)c(F)c7)CC6)CC5)cc4[nH]3)n[nH]c2C1 (stereo not drawn) [Compound 221, 3-(4-(4-((4-(2-(6,6-dimethyl-4,5,6,7-tetrahydro-1H-indazol-3-yl)-1H-indole-6-carbonyl)piperazin-1-yl)methyl)piperidin-1-yl)-2-fluorophenyl)piperidine-2,6-dione]
19 |  | 84 | C[C@H]1CN(C(=O)c2ccc3cc(-c4n[nH]c5c4C[C@@H]4C(F)(F)[C@]4(C)C5)[nH]c3c2)CCN1CC1CCN(c2ccc(C3CCC(=O)NC3=O)cc2F)CC1 (mixture of isomers) [Compound 155]
20 |  | 78 | C[C@@]12Cc3[nH]nc(-c4cc5cc(F)c(C(=O)N6CCN(CC7CCN(c8ccc(C(=O)N[C@H]9CCC(=O)NC9=O)nc8)CC7)CC6)cc5[nH]4)c3C[C@@H]1C2(F)F [Compound 144]
21 |  | 84 | C[C@@H]1CN(c2ccc(C3CCC(=O)NC3=O)cn2)CCN1CC1CCN(C(=O)c2ccc3cc(-c4n[nH]c5c4CCC(C)(C)C5)[nH]c3c2)CC1 (stereo partly drawn) [Compound 189]
22 |  | 78 | CC1(C)CCc2c(-c3cc4ccc(C(=O)N5CCC(CN6CCCN(c7ccc(C8CCC(=O)NC8=O)cn7)CC6)CC5)cc4[nH]3)n[nH]c2C1 (stereo not drawn) [Compound 191]
23 | 1.8 | 88 | C[C@@]12Cc3[nH]nc(C(=O)Nc4ccc(C5CCN(CC6CCN(c7ccc(C8CCC(=O)NC8=O)cc7)CC6)CC5)cc4)c3C[C@@H]1C2(F)F (stereo partly drawn) [Compound 108, (4aS,5aR)-N-(4-(1-((1-(4-(2,6-dioxopiperidin-3-yl)phenyl)piperidin-4-yl)methyl)piperidin-4-yl)phenyl)-5,5-difluoro-5a-methyl-1,4,4a,5,5a,6-hexahydrocyclopropa[f]indazole-3-carboxamide]
